In patent publication US9963474B2, “Mitochondria-targeted dicarbonyl sequestering compounds” (MEDICAL RESEARCH COUNCIL, priority 2013, dated 2018):

Columns and labels:
[1] = Partition coefficients between PBS and octan-1-ol; type: physicochemical; details: octan-1-ol/PBS, means ± SE of 3 determinations, read-out: Partition coefficient (converted)
Protocol: RP-HPLC was performed using a Gilson 321 pump with a C18 column (Jupiter 300 Å, Phenomenex) with a Widepore C18 guard column (Phenomenex). Samples (1 ml) were injected through a 0.22 μm PVDF filter (Millex, Millipore). HPLC buffer A [0.1% TFA in water] and HPLC buffer B (90% acetonitrile and 0.1% TFA) were used and a gradient was run at 1 ml/min at room temperature as follows: 0-2 min—5% B; 2-17 min—5-100% B; 17-19 min—100% B; 19-22 min—100-5% B. Peaks were detected by absorbance at 220 nm (UV/Vis 151, Gilson) and by fluorescence (excitation and emission wavelengths of 344 and 433 nm; RF-10AXL, Shimadzu). Partition coefficients between PBS and octan-1-ol were determined as previously described.

[2] = system: RLM respiring on glutamate/malate; experiment: Effect on respiration of isolated RLM (oxygen electrode); parameters: species or system rat
Protocol: (A, B) RLM respiring on glutamate/malate at 37° C. were incubated with various concentrations of MitoG for 7 min in an oxygen electrode to measure coupled respiration (A) before ADP was added to measure phosphorylating respiration (B). Data are the percentage of the respiration rates of untreated controls (dashed lines). (C and D) C2C12 cells (C) or BAECs [Bovine Aortic Endothelial Cells; Cell Applications Inc, San Diego, Calif.] (D) were incubated with MitoG for 24 h and cell survival was then determined using the MTS assay. Data are expressed as a percentage of the untreated controls (dashed line). (E-H) BAECs were incubated with MitoG for 2 h at 37° C. and the cellular oxygen consumption rate (OCR) after the sequential additions of oligomycin, FCCP and antimycin A/rotenone were then measured using a Seahorse XF24 analyser. (E) OCR due to ATP synthesis, (F) OCR due to proton leak, (G) reserve capacity and (H) non-mitochondrial oxygen consumption. […]
Rat liver mitochondria (RLM) were prepared at 4° C. in STE buffer [250 mM sucrose, 5 mM Tris and 1 mM EGTA, pH 7.4 (HCl)] by homogenisation and differential centrifugation. Protein concentration was determined using the biuret assay relative to bovine serum albumin (BSA) and was typically 40-60 mg/ml. […] Oxygen consumption rates were determined from the slopes using Chart v5.5.6. for Mac (AD Instruments, Australia). […]

[3] = system: horse-radish peroxidase (HRP); experiment: Stability under oxidative conditions (HRP and hydrogen peroxide); type: physicochemical
Protocol: MitoG 100 μM was mixed with 0.07 U horse-radish peroxidase (HRP) in a 1 ml curvette containing 100 mM potassium phosphate buffer (pH 6.0) and 0.5% (w/v) hydrogen peroxide at room temperature. A reference curvette and a blank were similarly set up with DMSO in place of MitoG. Scanning UV/Vis spectra were then taken at 1 min, 5 min and 10 min after mixing using a spectrophotometer (Shimadzu UV-2501PC). Spectra of MitoG-containing mixtures were compared against the spectrum of the blank. To determine if any reaction observed could be prevented by the HRP inhibitor, NaN3 [58, 59] separate incubations were set up as above but containing 8 mg/ml NaN3 as well.
Oxidative degradation of o-phenylenediamine is known to result in the production of methylglyoxal and glyoxal. This oxidative degradation can lead to an overestimation of dicarbonyl levels in samples if o-phenylenediamine is used to try to quantify methylglyoxal and glyoxal levels in biological samples. To determine if MitoG could undergo similar oxidative degradation to methylglyoxal and glyoxal, MitoG was incubated with HRP and hydrogen peroxide in vitro. Scanning UV/Vis spectra of the reaction mixture were taken before and after the addition of HRP. HRP was used as a representative peroxidase that could catalyse an oxidative degradation in a cellular environment. […] These changes are prevented by the HRP inhibitor, NaN3.

For `Nc1ccc(OCCCCCC[P+](c2ccccc2)(c2ccccc2)c2ccccc2)cc1N` [MitoG, (6-(3,4-Diaminophenoxy)hexyl)triphenylphosphonium chloride], the logD [1] was 0.38, the “coupled respiration (proton leak)” value ([2]; 5 μM MitoG) was “slight increase in proton leak” and the phosphorylating respiration ([2]; up to 5 μM MitoG) was “no effect”. The “degradation in the presence of HRP” value ([3]; 100 μM, 0.07 U HRP, 0.5% hydrogen peroxide, pH 6.0, room temperature) was “degrades in the presence of HRP” and the “oxidative degradation to methylglyoxal and glyoxal” value ([3]; HRP and hydrogen peroxide, product absorbs at 430 nm) was “does not undergo oxidative degradation to form methylglyoxal and glyoxal”.
